Structures are written as SMILES.

Two compounds from PMC5021059 (Clinical, Cosmetic and Investigational Dermatology, 2016) can be followed below.

The assay has as its target T1, 5-α-reductase type I (Homo sapiens, UniProt P18405).
T1 sequence (P18405 1-259): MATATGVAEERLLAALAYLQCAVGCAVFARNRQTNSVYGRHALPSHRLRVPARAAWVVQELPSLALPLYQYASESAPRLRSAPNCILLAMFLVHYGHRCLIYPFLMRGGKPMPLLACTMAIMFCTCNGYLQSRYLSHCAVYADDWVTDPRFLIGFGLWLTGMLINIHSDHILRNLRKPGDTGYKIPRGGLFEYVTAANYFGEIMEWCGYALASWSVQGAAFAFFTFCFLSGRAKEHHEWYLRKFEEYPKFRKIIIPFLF
It counts as biochemical.

As for `CCCCCCCCCCCCCCC[C@@H](O)[C@@H](N)CO` (racemic) [sphinganine], the IC50 was 6.5±0.33 and 6.8±0.1 μM.
In the case of `CC(C)(C)NC(=O)[C@H]1CC[C@H]2[C@@H]3CC[C@H]4NC(=O)C=C[C@]4(C)[C@H]3CC[C@]12C` [finasteride], the IC50 was 420 ± 20 nM.
